Two compounds from patent publication US10351559B2, “Maleate salts of a B-RAF kinase inhibitor, crystalline forms, methods of preparation, and uses therefore” (BeiGene, Ltd., priority 2015, dated 2019) can be followed below.

Series [1] is described as follows: hygroscopicity (moisture sorption) by DVS. It is filed as physicochemical. Conditions: from 0 to 80% RH. An excerpt:
The free base of Compound 1 was obtained originally as an amorphous solid, which is slightly hygroscopic with 2.2% water gain from 0 to 80% RH. No form transformation was observed after dynamic vapor sorption (DVS).

Series [2] can be described thus: short-term stability study (1 week, 60° C. and 40° C./75% RH). It is filed as physicochemical. The procedure:
Weighed about 2 mg (For XRPD: 10 mg) of each of the above salts in a 40 mL glass vial, separately. The free base form was used as control. The closed samples were capped and sealed with parafilm, while the opened samples were covered by aluminum foil with pinhole. All the samples were stored in stability chamber or dry oven at the corresponding conditions (60° C. and 40° C./75% RH) for 1 week.

A short description of the next series: aqueous solubility study. Conditions: listed as free base of Compound 1. It is filed as physicochemical.
Another series in a line: tissue distribution. In kind it is in vivo. The conditions noted are these: various tissues, brain.
The test system of a further series is CYP3A. In words: CYP isoforms responsible for metabolism. It is filed as in vitro ADME.
Series [3] in a line: pharmacokinetic comparison of sesqui-maleate and free base, oral. It is filed as in vivo, Beagle dogs. The conditions noted are these: dogs, oral dose 1 mg/kg (free base); listed as Free Base (Lyophilized Amorphous Form), 1 mg/kg. The text has this:
Drugs and reagents: Crystalline Form A* of Compound 1 Sesqui-Maleate with particle sizes of D90=4.1 um, D10=1.5 um, D50=2.4 um after micronization. The material content (purity) was not less than 98.0%.
Experiment animals: Beagle dogs, male and female.
Pharmaceutical preparation: Weigh the appropriate amount of each substance and disperse in 0.5% sodium carboxymethyl cellulose (for the free base of Compound 1) or 0.5% methyl cellulose solution (for Compound 1 Sesqui-Maleate). Prepare a suspension at the desired concentration of Compound 1. All the doses and concentrations of Compound 1 were calculated with free base in this study.
Administration and sample collection: The dosing solutions will be freshly prepared prior to dose administration. The actual body weights and actual volume injected will be recorded accordingly. The dogs were fasted overnight and were allowed to intake food four hours after dosing. Each suspension was administrated orally to dogs at a dose ranged from 0.5 to 15 mg/kg. Blood samples (˜1.0 mL) will be collected at pre-dose and at different times up to 36 hours postdosing via cephalic vein plexus. Whole blood will be processed by centrifugation and plasma samples will be collected and kept at freezer prior to analysis. Plasma samples were processed by protein precipitation. Concentrations of Compound 1 in the plasma samples were determined using a validated liquid chromatography-tandem mass spectrometry (LC-MS/MS) method. The plasma concentration-time data were analyzed using a non-compartmental model using Pharsight WinNonlin.

Series [4] deals with BRAF V600E and KRAS cancers. The series is described as follows: Phase I clinical study. It is filed as in vivo, human.
Setting [5] is: 16 KRAS cancer patients treated.

Bounds are passed on as bounds.

For the compound 2-hydroxyethanesulfonate, in series [1], the “water (weight) gain” value is given as “around 4%”. Also, the TRS % in series [2] (0 day) was 0.08%; in series [2] (40° C./75% RH, 1 week), 0.51%; in series [2] (60° C., 1 week), 1.16%. For the same compound, the “chemical degradation” value in series [2] (after one week at 60° C. and 40° C./75% RH) is given as “showed degradations”. Further, in series [2] (both conditions after 1 week), the “appearance by visual observation” value is given as “no change”.

For `O=C1CCc2c(Oc3ccc4c(c3)[C@@H]3[C@H](O4)[C@H]3c3nc4ccc(C(F)(F)F)cc4[nH]3)ccnc2N1` [Compound 1, 5-(((1R,1aS,6bR)-1-(6-(trifluoromethyl)-1H-benzo[d]imidazol-2-yl)-1a,6b-dihydro-1H-cyclopropa[b]benzofuran-5-yl)oxy)-3,4-dihydro-1,8-naphthyridin-2(1H)-one], the “solubility in water” value in “aqueous solubility study” was “substantially insoluble in water”. Moreover, the aqueous solubility in the series “aqueous solubility study” (water, LOQ at 0.001 mg/mL) was < 1 µg/mL. Also, the “water (weight) gain” value in series [1] came to 2.2%. The TRS % in series [2] (0 day, listed as API free base) was 0.12%; in series [2] (40° C./75% RH, 1 week, listed as API free base), 0.11%; in series [2] (60° C., 1 week, listed as API free base), 0.12%. Moreover, the tissue distribution result in “tissue distribution” is recorded as “widely distributed to various tissues, but was low in brain tissue”. In addition, the “CYP isoform responsible for metabolism” value with CYP3A is reported as “CYP3A was the major CYP isoform”. The Cmax in series [3] turned out to be 257 ng/mL. For the same compound, the “Dose-Normalized AUC0-inf” value in series [3] is 1512 ng·kg·h/mL/mg. In series [4] (setting [5]), the “number of PR” value was determined as 3 PR. The “patients survived more than 2.2 months” value in series [4] (setting [5]) was “at least 12 patients”. Also, the clinical response result was “some anti-tumor activities” in series [4] (BRAF V600E CRC patients), “partial responses” in series [4] (BRAF V600E PTC patients) and “partial responses” in series [4] (BRAF V600E melanoma patients).

In general, aqueous solubility refers to the concentration that dissolves in the medium under given conditions. The low end stands for little dissolved substance, the high end for much dissolved substance. As a reminder, the Cmax is the peak of the concentration-time curve.
